The source of these data is patent publication EP4678643A1, “KRAS INHIBITOR COMPOUND, PHARMACEUTICAL COMPOSITION THEREOF, AND USE THEREOF” (Sunshine Lake Pharma Co., Ltd., priority 2023, dated 2024).

Read-outs that look alike come from different tables or passages of the source.

Data set [1] relates to pERK in AGS cells (KRAS G12D). Briefly: Inhibitory effect on intracellular pERK by In-Cell Western assay, AGS. Particulars: pERK inhibition, compound incubation 3 h, read-out: AGS, IC50 (nM) KRAS p.G12D. The data set is classed as cell-based. Here is the method:
(§1) 1. Determination of Inhibitory Effect on Intracellular pERK by In-Cell Western Assay
(§2) (1) On the first day, the following cells were revived and cultured with the corresponding culture medium and incubated at 37 °C, 5% CO2 until confluence.
(§3) (2) On the third day, the culture medium was removed, the cells were rinsed once with DPBS, 2 mL of TrypLE™ trypsin was added for digestion, and the cells were placed at room temperature until the cells detached. (3) 5 mL fresh culture medium was added to resuspend cells to terminate the digestion, and the cells were gently pipetted and centrifuged at 1000 rpm for 5 minutes at room temperature. (4) The supernatant was removed, and 5 mL fresh culture medium was added to resuspend the cells and count cells. (5) The cells were plated in a 384-well plate with appropriate cell concentration by adjusting with complete culture medium and incubated at 37 °C, 5% CO2 for overnight. (6) 200 nL of the prepared serial dilution compound (DMSO final concentration was 0.5%) was added and incubated at 37 °C, CO2 for 3 h (HPAC cell lines for 1 h). (7) The cells were fixed. (8) The cells were washed twice with PBS. (9) The blocking solution was added and the cells were incubated at room temperature for 1 h. (10) The blocking solution was removed, and the primary antibody (phospho-ERK Rabbit mAb + GAPDH (D4C6R) Mouse mAb) was added and the cells were incubated at 4 °C for overnight. (11) The cells were washed twice with PBST (PBS + 0.05% Tween 20) for 2 minutes each time. (12) PBST was removed and secondary antibody (IRDye 800CW Goat anti-Rabbit IgG (H+L) + IRDye 680RD Goat anti Mouse IgG (H+L)) was added and incubated away from light at room temperature. (14) Secondary antibody was discarded and the cell was washed twice with PBST, 2 minutes each time. (15) 384-well plate was inverted and centrifuged at 1000 rpm at room temperature for 1 minute, and the 384-well plate was scanned with Odyssey CLx.

Data set [2] has as its system pERK in H358 cells (KRAS p.G12C). Briefly: Inhibitory effect on intracellular pERK by In-Cell Western assay, H358. The data set is classed as cell-based. Conditions: Homo sapiens, NCI-H358, pERK inhibition, compound incubation 3 h. The protocol:
as §1, §2
as §3, with “CLx. (16) Data analysis: • a) Assay stability check was peformed by using DMSO and reference control data: [formula] [formula] • b) nonlinear fitting of Compound IC50: Y = Bottom + (Top−Bottom)/(1+10^(∧)((LogIC50−X)×HillSlope)). [formula]” for “CLx.”

The test system of data set [3] is pERK in MKN1 cells (KRAS WTdep). Briefly: Inhibitory effect on intracellular pERK by In-Cell Western assay, MKN1. The data set is classed as cell-based. Conditions: Homo sapiens, MKN-1, pERK inhibition, compound incubation 3 h. The protocol: as §1, §2
as §3, with “CLx. (16) Data analysis: • a) Assay stability check was peformed by using DMSO and reference control data: [formula] [formula] • b) nonlinear fitting of Compound IC50: Y = Bottom + (Top−Bottom)/(1+10^(∧)((LogIC50−X)×HillSlope)). [formula]” for “CLx.”

For data set [4], the system named is pERK in A549 cells (KRAS p.G12S). Briefly: Inhibitory effect on intracellular pERK by In-Cell Western assay, A549. The data set is classed as cell-based. Particulars: Homo sapiens, pERK inhibition, compound incubation 3 h. The protocol:
as §1, §2
as §3, with “CLx. (16) Data analysis: • a) Assay stability check was peformed by using DMSO and reference control data: [formula] [formula] • b) nonlinear fitting of Compound IC50: Y = Bottom + (Top−Bottom)/(1+10^(∧)((LogIC50−X)×HillSlope)). [formula]” for “CLx.”

Data set [5] deals with pERK in HCT 116 cells (KRAS p.G13D). Briefly: Inhibitory effect on intracellular pERK by In-Cell Western assay, HCT 116. The data set is classed as cell-based. Conditions: Homo sapiens, pERK inhibition, compound incubation 3 h. The protocol:
as §1, §2
as §3, with “CLx. (16) Data analysis: • a) Assay stability check was peformed by using DMSO and reference control data: [formula] [formula] • b) nonlinear fitting of Compound IC50: Y = Bottom + (Top−Bottom)/(1+10^(∧)((LogIC50−X)×HillSlope)). [formula]” for “CLx.”

The nature of data set [6]: Pharmacokinetic evaluation by intravenous injection or oral gavage in mice.
Experimental: Pharmacokinetic evaluation of the compounds of the present invention by intravenous injection or oral gavage in mice
The inventors conducted a pharmacokinetic evaluation of the compounds of this invention in mice.
The compounds of the present invention were administered to test animals in the form of a solution of 5% DMSO + 30% PEG400 + 65% saline, 10% DMSO + 10% Kolliphor HS15 + 80% Saline, 10% DMSO + 89% (25% SBE-B-CD) + (2% HCl), 20% PEG400 + 80% sterile water for injection, or 10% DMA + 10% HS15 + 30% PEG400 + 50% sterile water for injection. The animals were fasted for 12 hours before administration and had free access to water. For the intravenous administration group, the dose was 2 mg/kg/day, qd. Venous blood samples (approximately 0.15 mL) were collected at the following time points after administration: 0.083, 0.25, 0.5, 1.0, 2.0, 5.0, 7.0 and 24 hours. EDTA-K2 was pre-added to the blood collection tube as an anticoagulant. Blood samples were centrifuged at 12,000 rpm for 2 minutes, and plasma was collected and stored at -20°C or -70°C. For the intravenous administration group, the dose was 5 mg/kg/day, qd. Venous blood samples (approximately 0.15 mL) were collected at the following time points after administration: 0.25, 0.5, 1.0, 2.0, 5.0, 7.0 and 24 hours. EDTA-K2 was pre-added to the blood collection tube as an anticoagulant. Blood samples were centrifuged at 12,000 rpm for 2 minutes, and plasma was collected and stored at -20°C or -70°C.
The collected plasma samples were processed (frozen plasma was thawed at room temperature and vortexed for 15 seconds. 10-20 µL of plasma was added to 120-150 µL of acetonitrile solution containing the internal standard and vortexed for 5 minutes. The sample was centrifuged at 4,000 rpm for 5 minutes. 100 µL of the supernatant was added to 120-150 µL of methanol/water (v/v = 1/1) and mixed). The concentrations of the compounds in the plasma were analyzed by LC-MS/MS.

Turning to `C#Cc1c(F)ccc2cc(O)cc(-c3nc(C#CC)c4c(N5CCCOCC5)nc(OCC5(CN6CCOCC6)CC5)nc4c3F)c12` [Compound 19], the IC50 (commonly the concentration needed to halve the response being measured) in data set [1] (Homo sapiens, AGS, 3 h) amounted to 6.4 nM.

Take `C#Cc1c(F)ccc2cc(O)cc(-c3nc(C#CC)c4c(N5CCCOCC5)nc(OC[C@@H]5C[C@@H](F)CN5C)nc4c3F)c12` [Compound 16]: the IC50 in data set [1] (Homo sapiens, AGS, 3 h) came to 8.1 nM.

As for `C#Cc1nc(-c2cc(O)cc3ccc(F)c(CC)c23)c(F)c2nc(OC[C@@]34CCCN3C[C@H](F)C4)nc(N3CCCOCC3)c12` [Compound 8], the IC50 in data set [1] (Homo sapiens, AGS, 3 h) turned out to be 7.1 nM.

For `C#Cc1c(F)ccc2cc(O)cc(-c3nc(C#CCOC4CCC4)c4c(N5CCCOCC5)nc(OC[C@@]56CCCN5C[C@H](F)C6)nc4c3F)c12` [Compound 5], in data set [1] (Homo sapiens, AGS, 3 h), the IC50 came out at 8.6 nM.

`C#Cc1c(F)ccc2cc(O)cc(-c3nc(C#CC)c4c(N5CCCOCC5)nc(OCC56CCCN5CC(F)C6)nc4c3F)c12` (stereo not drawn) [Compound 17]: in data set [1], the IC50 worked out at 0.8 nM.

In the case of `C#Cc1c(F)ccc2cc(O)cc(-c3nc(C#CC)c4c(N5CCCCCC5)nc(OC[C@@]56CCCN5C[C@H](F)C6)nc4c3F)c12` [Compound 29], the IC50 in data set [2] was found to be 2.2 nM; in data set [3], 3.6 nM; in data set [4] it was 6.2 nM; in data set [5], 15.2 nM; in data set [1] (Homo sapiens, AGS, 3 h), 1.4 nM.

Consider `C#Cc1c(F)ccc2cc(O)cc(-c3nc(C#CC)c4c(N5CCCOCC5)nc(OCC56CCCN5CCC6)nc4c3F)c12` [Compound 11], for which the IC50 came out at 2 nM in data set [2]; 7.4 nM in data set [3]; 20.2 nM in data set [4]; 28.6 nM in data set [5]; 2.6 nM in data set [1] (Homo sapiens, AGS, 3 h).

Regarding `C#Cc1nc(-c2cc(O)cc3cccc(Cl)c23)c(F)c2nc(OC[C@@]34CCCN3C[C@H](F)C4)nc(N3CCCOCC3)c12` [Compound 9], in data set [1] (Homo sapiens, AGS, 3 h), the IC50 amounted to 17.2 nM.

Turning to `C#Cc1c(F)ccc2cc(O)cc(-c3nc(C#CC)c4c(N5CCCOCC5)nc(OC[C@@H]5CCCN5C)nc4c3F)c12` [Compound 12], the IC50 in data set [1] (Homo sapiens, AGS, 3 h) worked out at 5.8 nM.

As to `CCC#Cc1nc(-c2cc(O)cc3ccc(F)c(CC)c23)c(F)c2nc(OC[C@@]34CCCN3C[C@H](F)C4)nc(N3CCCCC(=O)C3)c12` [Compound 33], the IC50 in data set [1] (Homo sapiens, AGS, 3 h) was 4.1 nM.

As for `C#Cc1c(F)ccc2cc(O)cc(-c3nc(C#C)c4c(N5CCCOCC5)nc(OCC56CC(=C)CN5CC(=C)C6)nc4c3F)c12` [Compound 10], the IC50 is 0.7 nM in data set [2]; 1.6 nM in data set [3]; 1.4 nM in data set [4]; 6.2 nM in data set [5]; 0.8 nM in data set [1] (Homo sapiens, AGS, 3 h).

Regarding `C#Cc1c(F)ccc2cc(O)cc(-c3nc(C#CC)c4c(N5CCOCC(F)(F)C5)nc(OC[C@@]56CCCN5C[C@H](F)C6)nc4c3F)c12` [Compound 38], the IC50 in data set [2] came out at 0.4 nM; in data set [3], 1.41 nM; in data set [4], 1.2 nM; in data set [5] it was 5.4 nM; in data set [1] (Homo sapiens, AGS, 3 h), 1.6 nM.

For the molecule `C#Cc1c(F)ccc2cc(O)cc(-c3nc(C#C)c4c(N5CCCOCC5)nc(OC[C@@]56CCCN5C[C@H](F)C6)nc4c3F)c12` [Compound 7], the IC50 in data set [2] was determined as 1.3 nM; in data set [3], 3.3 nM; in data set [4], 5.7 nM; in data set [5], 11.6 nM; in data set [1] (Homo sapiens, AGS, 3 h) it was 0.6 nM.

Take `C#Cc1c(F)ccc2cc(O)cc(-c3nc(C#CC)c4c(N5CCCCC(F)(F)C5)nc(OC[C@@]56CCCN5C[C@H](F)C6)nc4c3F)c12` [Compound 27]: the IC50 was 2 nM in data set [2]; 4.5 nM in data set [3]; 5.1 nM in data set [4]; 19.5 nM in data set [5]; 5.2 nM in data set [1] (Homo sapiens, AGS, 3 h).

Turning to `CC#Cc1nc(-c2cc(O)cc3cccc(F)c23)c(F)c2nc(OC[C@@]34CCCN3C[C@H](F)C4)nc(N3CCCOCC3)c12` [Compound 24], the IC50 in data set [1] (Homo sapiens, AGS) worked out at 5.4 nM.

Turning to `CC#Cc1nc(-c2cc(O)cc3cccc(Cl)c23)c(F)c2nc(OC[C@@]34CCCN3C[C@H](F)C4)nc(N3CCCOCC3)c12` [Compound 23], in data set [1] (Homo sapiens, AGS, 3 h), the IC50 amounted to 6.1 nM.

As for `CCC#Cc1nc(-c2cc(O)cc3ccc(F)c(CC)c23)c(F)c2nc(OC[C@@]34CCCN3C[C@H](F)C4)nc(N3CCCOCC3)c12` [Compound 4], the IC50 in data set [1] (Homo sapiens, AGS, 3 h) stood at 7.5 nM.

Turning to `C#Cc1c(F)ccc2cc(O)cc(-c3nc(C#CC)c4c(N5CCCOCC5)nc(OCC56CC(=C)CN5CC(=C)C6)nc4c3F)c12` [Compound 14], the IC50 in data set [1] (Homo sapiens, AGS, 3 h) was found to be 1.2 nM.

Consider `C#Cc1c(F)ccc2cc(O)cc(-c3nc(C#CC)c4c(N5CCCOCC5)nc(OCC56CCCN5CC(F)(F)C6)nc4c3F)c12` (stereo not drawn) [Compound 15], for which, in data set [1] (Homo sapiens, AGS, 3 h), the IC50 was determined as 15 nM.

In the case of `C#Cc1c(F)ccc2cc(N)cc(-c3nc(C#CC)c4c(N5CCCOCC5)nc(OC[C@@]56CCCN5C[C@H](F)C6)nc4c3F)c12` [Compound 22], in data set [1] (Homo sapiens, AGS, 3 h), the IC50 amounted to 2.8 nM.

`C#Cc1c(F)ccc2cc(O)cc(-c3nc(C#CC)c4c(N5CCCCC(F)C5)nc(OC[C@@]56CCCN5C[C@H](F)C6)nc4c3F)c12` (stereo partly drawn) [Compound 25] came in with an IC50 in data set [2] of 0.8 nM. The same molecule yielded an IC50 in data set [3] of 3 nM. Moreover, in data set [4], the IC50 was determined as 2.3 nM. Further, in data set [5], the midpoint of inhibition, the IC50, lay at 7.9 nM. Besides, the IC50 in data set [1] (Homo sapiens, AGS) is 0.8 nM. For the same molecule, in data set [6] (mice, 5 mg/kg/day ig administration versus 2 mg/kg/day iv), the “F_AUCT NF” value was determined as 23%. For the same molecule, in data set [6] (mouse, plasma, iv, 2 mg/kg/day), the AUC(0-inf) – broadly, the area under the concentration-time curve extrapolated to infinity – was found to be 10800 ng·h/mL; the AUC(0-t) (usually exposure summed from dosing to a finite time, without extrapolation to infinity) was found to be 10600 ng·h/mL; the highest level (Cmax) was 9950 ng/mL; the MRT last (as a rule, the average time that molecules of a dose stay in the body) stood at 1.3 h. In data set [6] (mouse, plasma, iv, 2 mg/kg/day), the Tmax – broadly, the time from dosing to the highest level – came out at 0.083 h; the clearance came out at 3.2 mL/min/kg; the half-life (commonly the time in which the quantity being followed falls by half) was 1.2 h. Further, in data set [6] (mouse, plasma, po, 5 mg/kg/day), the AUC(0-inf) amounted to 6140 ng·h/mL, the AUC(0-t) was found to be 5960 ng·h/mL, the concentration peaked (Cmax) at 2660 ng/mL and the MRT last was 1.7 h. In data set [6] (mouse, plasma, po, 5 mg/kg/day), the Tmax was determined as 0.42 h and the half-life was 1.3 h. Besides, the “pharmacokinetic properties in mice” value in data set [6] (result in words) was “good pharmacokinetic properties”.

On to `C#Cc1c(F)ccc2cc(O)cc(-c3nc(C#CCC)c4c(N5CCCCCC5)nc(OC[C@@]56CCCN5C[C@H](F)C6)nc4c3F)c12` [Compound 30], for which the IC50 in data set [1] (Homo sapiens, AGS, 3 h) amounted to 6.8 nM.

For `CC#Cc1nc(-c2cc(O)cc3ccc(F)c(CC)c23)c(F)c2nc(OCC34CCCN3CCC4)nc(N3CCCCC(=O)C3)c12` [Compound 35], the IC50 in data set [1] (Homo sapiens, AGS, 3 h) turned out to be 4.4 nM.
